The results in this text go back to ChEMBL document CHEMBL1201862, “PubChem BioAssay data set” (2004).

Assay [1] in a line: Luminescence Cell-Based Dose Response to Identify Activators of Luciferase Translation or Activity in H4-C Neuroglioblastoma Cells. [Related pubchem assays: 1829 (Project Summary), 1814 (Primary HTS)]. It is filed as functional.
For the next assay, the system named is H4. The experiment in a line: Luminescence Cell-Based Dose Response HTS to Identify Activators of 5'UTR Stem-Loop Driven Prion Protein mRNA Translation in H4 Neuroglioblastoma Cells. [Related pubchem assays: 1829 (Project Summary), 1814 (Primary HTS)]. It is filed as functional. The following applies: Homo sapiens.
Assay [2] in a line: Luminescence Cell-Based Dose Confirmation to Identify Activators of 5'UTR Stem-Loop Driven Alpha-Synuclein mRNA Translation in H4 Neuroglioblastoma Cells. [Related pubchem assays: 1829 (Project Summary), 1814 (Primary HTS)]. In kind it is functional.
The nature of assay [3]: Luminescence Cell-Based Dose Response HTS to Identify Activators of Luciferase Translation or Activity in H4 […] Cells. [Related pubchem assays: 1829 (Project Summary), 1814 (Primary HTS)]. It is filed as functional.
A short description of assay [4]: Luminescence Cell-Based Dose Response to Identify Activators of 5'UTR Stem-Loop Driven Prion Protein mRNA Translation in H4-C Neuroglioblastoma Cells. [Related pubchem assays: 1829 (Project Summary), 1814 (Primary HTS)]. In kind it is functional.
The target in the next assay is Procathepsin L (Homo sapiens, UniProt P07711).
The target of the next assay is Aspartyl aminopeptidase (Plasmodium falciparum 3D7, UniProt Q8I2J3).
Assay [5] has as its system Streptococcus. Put plainly: Luminescence Microorganism-Based Dose Response Follow up to Identify Compounds Cytotoxic to Streptococcus. [Related pubchem assays: 1677 (Project Summary), 1915, 1914, 1902 (Retest at Dose), 1900 (Counter Screen), 1662 (Primary HTS)]. In kind it is functional, organism-based. For orientation: The purpose of a counterscreen is to sort out artefacts and off-target activity.

The next assay has as its target Cytochrome P450 2D6 (Homo sapiens, UniProt P10635). The experiment in a line: qHTS Assay for Inhibitors and Substrates of Cytochrome P450 2D6. [Related pubchem assays: 410 ]. In kind it is ADME. Particulars: read-out: Potency. Background: Quantitative high-throughput screening tests each substance at several concentrations.
The target in a further assay is Large T antigen (Simian virus 40, UniProt P03070). In kind it is functional, Betapolyomavirus macacae.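 Note: Confirmatory-stage PubChem screen for compounds that inhibit SV40 T antigen.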
In assay [6] the target is Benomyl/methotrexate resistance protein (Candida albicans, UniProt P28873). Put plainly: Candida albicans Mdr1 pump inhibition curves – singleplex, Cherry Pick1 hits, dose response (AID 588608). It is filed as functional.
The target in assay [7] is T1, Photoreceptor-specific nuclear receptor (Homo sapiens, UniProt Q9Y5X4). It is filed as functional.
Assay [8] concerns the target T2, Peroxisome proliferator-activated receptor gamma/Nuclear receptor corepressor 2 (Homo sapiens, UniProt P37231+Q9Y618). It is filed as functional.
The target of assay [9] is Induced myeloid leukemia cell differentiation protein Mcl-1 (Homo sapiens, UniProt Q07820). It is filed as functional.
Another assay addresses T3, NADPH oxidase 1 (Homo sapiens, UniProt Q9Y5S8).
T3 sequence (Q9Y5S8 whole entry): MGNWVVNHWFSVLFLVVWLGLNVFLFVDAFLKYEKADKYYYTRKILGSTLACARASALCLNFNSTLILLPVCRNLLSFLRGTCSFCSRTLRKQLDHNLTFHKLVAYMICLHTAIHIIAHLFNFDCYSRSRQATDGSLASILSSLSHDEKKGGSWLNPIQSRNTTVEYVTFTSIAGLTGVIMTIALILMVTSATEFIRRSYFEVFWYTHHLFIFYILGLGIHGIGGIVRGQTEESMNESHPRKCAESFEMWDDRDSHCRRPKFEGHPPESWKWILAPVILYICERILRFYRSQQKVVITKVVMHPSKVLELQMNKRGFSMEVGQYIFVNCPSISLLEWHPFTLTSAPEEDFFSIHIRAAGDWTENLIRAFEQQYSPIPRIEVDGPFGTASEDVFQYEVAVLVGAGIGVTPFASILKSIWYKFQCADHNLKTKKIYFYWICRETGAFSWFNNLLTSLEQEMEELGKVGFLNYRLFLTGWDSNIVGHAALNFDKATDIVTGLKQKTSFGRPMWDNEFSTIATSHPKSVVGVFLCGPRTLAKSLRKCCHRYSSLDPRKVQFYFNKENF
In kind it is functional, cell-based.

The target of assay [10] is T1, Photoreceptor-specific nuclear receptor. Put plainly: ligands suppressing NR2E3 nuclear receptor activity – biochemical, TR-FRET, dose response (AID 463256). It is filed as functional. (TR-FRET usually uses a lanthanide donor and a delayed reading to cut background.)
For assay [11], the target named is T2, Peroxisome proliferator-activated receptor gamma/Nuclear receptor corepressor 2. The experiment in a line: Counterscreen for NR2E3 inverse agonists: TR-FRET-based biochemical high throughput dose response assay to identify inverse agonists of the interaction between peroxisome proliferator-activated receptor gamma (PPARg) and nuclear receptor co-repressor 2 (NCOR2). In kind it is functional.

Assay [12] concerns Streptococcus. The experiment in a line: GAS UMAA2166 growth inhibition – luminescence, BacTiterGlo, counter-screen for streptokinase expression inhibitor project, dose response (AID 1915).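 Note: potency for reduction of bacterial viability or growth.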 In kind it is functional, organism-based.
The next assay addresses T4, Streptokinase A (Streptococcus pyogenes serotype M1, UniProt P10520).
T4 sequence (P10520 whole entry): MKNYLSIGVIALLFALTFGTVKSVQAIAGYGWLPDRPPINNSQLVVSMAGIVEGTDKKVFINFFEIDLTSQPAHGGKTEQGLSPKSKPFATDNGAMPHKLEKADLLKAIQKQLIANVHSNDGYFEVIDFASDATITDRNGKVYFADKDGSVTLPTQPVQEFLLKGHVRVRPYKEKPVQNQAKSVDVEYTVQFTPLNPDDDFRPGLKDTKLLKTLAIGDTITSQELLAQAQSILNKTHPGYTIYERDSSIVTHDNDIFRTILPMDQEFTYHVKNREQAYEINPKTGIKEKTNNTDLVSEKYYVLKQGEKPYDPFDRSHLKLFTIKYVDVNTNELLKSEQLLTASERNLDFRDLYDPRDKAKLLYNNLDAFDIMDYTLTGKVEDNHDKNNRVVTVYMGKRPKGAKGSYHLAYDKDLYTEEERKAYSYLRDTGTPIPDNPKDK
Put plainly: viability-normalized secreted streptokinase activity reduction – plasminogen activation absorbance, OD405, dose response (AID 1914).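 Note: secreted streptokinase activity via plasminogen activation per viability signal from cell pellet.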 In kind it is functional, Streptococcus pyogenes M1 GAS.

For assay [13], the target named is T5, Heat shock factor protein 1 (Mus musculus, UniProt P38532).
T5 sequence (P38532 whole entry): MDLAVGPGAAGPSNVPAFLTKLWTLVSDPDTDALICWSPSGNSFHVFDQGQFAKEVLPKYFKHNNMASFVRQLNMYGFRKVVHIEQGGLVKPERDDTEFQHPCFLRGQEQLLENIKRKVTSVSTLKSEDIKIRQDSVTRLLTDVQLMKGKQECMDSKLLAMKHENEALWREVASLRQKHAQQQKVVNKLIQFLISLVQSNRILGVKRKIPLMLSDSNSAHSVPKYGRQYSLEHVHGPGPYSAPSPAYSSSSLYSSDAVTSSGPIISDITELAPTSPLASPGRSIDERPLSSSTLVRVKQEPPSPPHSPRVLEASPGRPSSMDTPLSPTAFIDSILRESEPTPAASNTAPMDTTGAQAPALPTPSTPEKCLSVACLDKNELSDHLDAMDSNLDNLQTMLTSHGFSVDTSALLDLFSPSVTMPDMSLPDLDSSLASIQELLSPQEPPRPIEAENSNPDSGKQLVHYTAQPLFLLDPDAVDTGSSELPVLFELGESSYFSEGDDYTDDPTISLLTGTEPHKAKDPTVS
Put plainly: decrease of HSF1-responsive luciferase luminescence – cell-based, NIH3T3, dose retest, confirmation (AID 2382).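 Note: NIH3T3 fibroblasts with HSF1-driven luciferase reporter stressed by proteasome inhibitor MG132; luminescence from HSF1-driven luciferase expression after 8 hours of MG132 stress.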 In kind it is functional.

For assay [14], the system named is Streptococcus sp. 'group A'. The experiment in a line: Streptococcus pyogenes SK(-)GAS viability under kanamycin – luminescence, BacTiterGlo, confirmation, counter-screen for streptokinase expression inhibitor project, dose response (AID 1900). It is filed as functional, organism-based.
In the next assay the target is Cytochrome P450 2C9 (Homo sapiens, UniProt P11712). Particulars: Potency.
Another assay deals with Cytochrome P450 3A4 (Homo sapiens, UniProt P08684). The following applies: Potency.
Assay [15] is described as follows: Luminescence Cell-Based Dose Confirmation HTS to Identify Activators of 5'UTR Stem-Loop Driven Alpha-Synuclein mRNA Translation in H4 Neuroglioblastoma Cells. [Related pubchem assays: 1829 (Project Summary), 1814 (Primary HTS)]. It is filed as functional.
The target in another assay is Ephrin type-A receptor 4 (Mus musculus, UniProt Q03137). The experiment in a line: EphA4 ligand-binding antagonists – biochemical, colorimetric, mouse EphA4, primary screen (AID 689). In kind it is functional.
Assay [16] concerns the target T6, Calpain-2 catalytic subunit (Sus scrofa, UniProt P43367).
T6 sequence (P43367 whole entry): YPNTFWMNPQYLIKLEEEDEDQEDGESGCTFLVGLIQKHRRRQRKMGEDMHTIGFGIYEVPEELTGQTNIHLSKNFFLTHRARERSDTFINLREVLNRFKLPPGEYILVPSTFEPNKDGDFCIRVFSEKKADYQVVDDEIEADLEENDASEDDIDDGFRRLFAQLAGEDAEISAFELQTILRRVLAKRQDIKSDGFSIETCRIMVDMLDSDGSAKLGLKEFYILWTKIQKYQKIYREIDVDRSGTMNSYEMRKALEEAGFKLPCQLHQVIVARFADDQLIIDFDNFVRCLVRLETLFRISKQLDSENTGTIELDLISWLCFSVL
Put plainly: m-calpain protease blockers, concentration series – biochemical, fluorogenic peptide substrate, dose response (AID 1420). It is filed as functional.

Assay [17] can be described thus: viability loss in Vero cells – cytotoxicity control for Vif-APOBEC3G degradation inhibitor project, dose response (AID 1117358). Particulars: Vero. It is filed as functional.

For orientation: EC50 means the concentration that produces a half-maximal response. In general, IC50 refers to the concentration that inhibits the measured activity by half. The CC50 is the concentration that lowers cell viability or growth by half.

Activity calls are given as the source filed them. Some results are limits rather than exact numbers.

T1 sequence (Q9Y5X4 whole entry): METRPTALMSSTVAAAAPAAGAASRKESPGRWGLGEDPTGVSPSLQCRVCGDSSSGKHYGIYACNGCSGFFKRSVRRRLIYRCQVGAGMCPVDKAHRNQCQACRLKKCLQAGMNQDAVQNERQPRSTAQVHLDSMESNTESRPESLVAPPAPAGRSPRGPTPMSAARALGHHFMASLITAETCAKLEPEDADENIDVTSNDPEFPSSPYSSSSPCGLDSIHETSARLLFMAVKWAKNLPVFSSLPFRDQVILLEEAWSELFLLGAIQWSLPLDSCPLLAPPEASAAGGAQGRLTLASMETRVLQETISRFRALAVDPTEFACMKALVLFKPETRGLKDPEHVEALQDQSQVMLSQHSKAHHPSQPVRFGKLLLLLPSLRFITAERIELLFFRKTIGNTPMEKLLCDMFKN
Chain of Cytochrome P450 2D6 (P10635 whole entry): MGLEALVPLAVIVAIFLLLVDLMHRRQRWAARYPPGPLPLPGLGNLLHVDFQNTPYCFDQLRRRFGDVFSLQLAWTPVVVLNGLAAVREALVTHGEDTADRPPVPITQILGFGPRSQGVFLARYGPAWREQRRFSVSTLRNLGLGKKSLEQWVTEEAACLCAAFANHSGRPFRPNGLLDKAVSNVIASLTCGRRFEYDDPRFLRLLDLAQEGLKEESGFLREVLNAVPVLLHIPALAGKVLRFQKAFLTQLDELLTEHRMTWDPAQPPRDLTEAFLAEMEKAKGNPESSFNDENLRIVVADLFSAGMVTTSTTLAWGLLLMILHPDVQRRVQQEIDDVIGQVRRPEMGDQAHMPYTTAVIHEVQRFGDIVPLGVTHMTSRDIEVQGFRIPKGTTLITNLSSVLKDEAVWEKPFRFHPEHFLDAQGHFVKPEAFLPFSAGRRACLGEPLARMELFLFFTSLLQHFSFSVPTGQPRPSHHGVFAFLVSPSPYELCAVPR
T2 sequence (P37231 whole entry): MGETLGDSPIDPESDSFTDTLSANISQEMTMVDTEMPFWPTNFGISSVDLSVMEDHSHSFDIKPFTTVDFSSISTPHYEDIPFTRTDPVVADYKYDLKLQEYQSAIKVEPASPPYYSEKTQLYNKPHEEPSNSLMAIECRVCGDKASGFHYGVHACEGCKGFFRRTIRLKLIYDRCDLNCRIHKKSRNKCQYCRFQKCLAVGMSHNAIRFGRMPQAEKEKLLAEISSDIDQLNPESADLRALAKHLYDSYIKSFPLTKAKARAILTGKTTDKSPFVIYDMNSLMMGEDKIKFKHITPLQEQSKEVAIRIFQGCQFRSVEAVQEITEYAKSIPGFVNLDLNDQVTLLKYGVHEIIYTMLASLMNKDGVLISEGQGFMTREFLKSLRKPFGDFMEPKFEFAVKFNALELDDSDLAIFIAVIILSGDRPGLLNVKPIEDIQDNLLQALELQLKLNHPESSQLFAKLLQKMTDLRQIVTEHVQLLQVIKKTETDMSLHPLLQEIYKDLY
T2 sequence (Q9Y618 whole entry): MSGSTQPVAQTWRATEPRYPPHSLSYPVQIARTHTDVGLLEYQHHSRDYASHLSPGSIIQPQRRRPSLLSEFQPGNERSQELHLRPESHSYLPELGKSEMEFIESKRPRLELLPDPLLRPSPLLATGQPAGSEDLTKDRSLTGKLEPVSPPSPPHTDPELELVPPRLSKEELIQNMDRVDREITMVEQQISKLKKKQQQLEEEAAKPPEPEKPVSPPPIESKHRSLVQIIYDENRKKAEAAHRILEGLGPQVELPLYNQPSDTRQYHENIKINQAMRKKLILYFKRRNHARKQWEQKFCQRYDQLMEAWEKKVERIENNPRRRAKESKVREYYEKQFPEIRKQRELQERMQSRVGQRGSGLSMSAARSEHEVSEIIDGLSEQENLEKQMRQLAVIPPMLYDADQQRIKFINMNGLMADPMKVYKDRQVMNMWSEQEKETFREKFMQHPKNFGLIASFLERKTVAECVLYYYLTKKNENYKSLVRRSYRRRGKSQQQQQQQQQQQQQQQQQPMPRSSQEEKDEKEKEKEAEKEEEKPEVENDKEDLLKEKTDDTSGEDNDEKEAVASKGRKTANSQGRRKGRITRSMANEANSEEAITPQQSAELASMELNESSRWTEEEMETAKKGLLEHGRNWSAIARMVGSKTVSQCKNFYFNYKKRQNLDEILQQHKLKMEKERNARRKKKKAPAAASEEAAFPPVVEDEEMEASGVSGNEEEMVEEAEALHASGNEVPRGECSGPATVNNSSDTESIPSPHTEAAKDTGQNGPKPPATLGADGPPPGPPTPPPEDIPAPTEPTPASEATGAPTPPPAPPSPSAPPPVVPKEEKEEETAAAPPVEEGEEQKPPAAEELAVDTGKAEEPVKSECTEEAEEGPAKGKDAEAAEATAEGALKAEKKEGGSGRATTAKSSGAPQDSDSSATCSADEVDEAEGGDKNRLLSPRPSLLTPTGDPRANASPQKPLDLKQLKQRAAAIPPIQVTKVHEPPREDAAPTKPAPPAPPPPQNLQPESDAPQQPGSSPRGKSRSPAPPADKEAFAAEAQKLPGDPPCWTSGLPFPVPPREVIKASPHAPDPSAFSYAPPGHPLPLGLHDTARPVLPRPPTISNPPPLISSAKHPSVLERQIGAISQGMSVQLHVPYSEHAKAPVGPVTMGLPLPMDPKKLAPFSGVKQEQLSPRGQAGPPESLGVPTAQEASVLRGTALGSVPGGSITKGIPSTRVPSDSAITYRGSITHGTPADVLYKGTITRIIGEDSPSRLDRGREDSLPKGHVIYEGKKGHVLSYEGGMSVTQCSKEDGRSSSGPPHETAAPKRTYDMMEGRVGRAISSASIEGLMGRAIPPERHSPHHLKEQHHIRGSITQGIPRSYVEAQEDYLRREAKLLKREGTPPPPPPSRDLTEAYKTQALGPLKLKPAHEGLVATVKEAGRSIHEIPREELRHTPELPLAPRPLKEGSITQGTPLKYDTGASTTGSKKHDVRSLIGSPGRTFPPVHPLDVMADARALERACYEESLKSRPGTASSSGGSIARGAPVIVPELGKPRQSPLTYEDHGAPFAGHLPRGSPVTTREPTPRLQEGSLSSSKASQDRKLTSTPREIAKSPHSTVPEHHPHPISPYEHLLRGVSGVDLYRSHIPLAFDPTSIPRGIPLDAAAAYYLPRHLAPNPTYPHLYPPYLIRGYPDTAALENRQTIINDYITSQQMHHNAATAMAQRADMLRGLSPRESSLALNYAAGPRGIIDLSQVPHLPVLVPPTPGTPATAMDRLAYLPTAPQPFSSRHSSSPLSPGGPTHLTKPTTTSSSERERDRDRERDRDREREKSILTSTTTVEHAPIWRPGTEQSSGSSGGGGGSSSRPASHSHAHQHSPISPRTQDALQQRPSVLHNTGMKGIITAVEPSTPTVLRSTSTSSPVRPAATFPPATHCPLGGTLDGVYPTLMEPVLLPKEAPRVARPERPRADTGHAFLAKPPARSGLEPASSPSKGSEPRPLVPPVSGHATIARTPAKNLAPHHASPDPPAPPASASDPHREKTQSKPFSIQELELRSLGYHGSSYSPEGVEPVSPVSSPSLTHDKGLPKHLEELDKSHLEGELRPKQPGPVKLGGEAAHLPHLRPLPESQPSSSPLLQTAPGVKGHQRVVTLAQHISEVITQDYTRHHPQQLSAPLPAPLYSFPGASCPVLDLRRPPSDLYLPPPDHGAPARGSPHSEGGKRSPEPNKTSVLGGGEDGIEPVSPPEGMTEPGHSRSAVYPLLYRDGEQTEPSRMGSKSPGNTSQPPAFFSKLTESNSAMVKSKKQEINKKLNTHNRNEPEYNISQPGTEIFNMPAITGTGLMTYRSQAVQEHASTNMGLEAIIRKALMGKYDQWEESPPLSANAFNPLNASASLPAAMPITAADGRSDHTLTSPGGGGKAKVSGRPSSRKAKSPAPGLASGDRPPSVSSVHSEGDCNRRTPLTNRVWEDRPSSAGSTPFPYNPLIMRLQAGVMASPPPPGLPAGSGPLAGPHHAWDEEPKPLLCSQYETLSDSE
Chain of Aspartyl aminopeptidase (Q8I2J3 whole entry): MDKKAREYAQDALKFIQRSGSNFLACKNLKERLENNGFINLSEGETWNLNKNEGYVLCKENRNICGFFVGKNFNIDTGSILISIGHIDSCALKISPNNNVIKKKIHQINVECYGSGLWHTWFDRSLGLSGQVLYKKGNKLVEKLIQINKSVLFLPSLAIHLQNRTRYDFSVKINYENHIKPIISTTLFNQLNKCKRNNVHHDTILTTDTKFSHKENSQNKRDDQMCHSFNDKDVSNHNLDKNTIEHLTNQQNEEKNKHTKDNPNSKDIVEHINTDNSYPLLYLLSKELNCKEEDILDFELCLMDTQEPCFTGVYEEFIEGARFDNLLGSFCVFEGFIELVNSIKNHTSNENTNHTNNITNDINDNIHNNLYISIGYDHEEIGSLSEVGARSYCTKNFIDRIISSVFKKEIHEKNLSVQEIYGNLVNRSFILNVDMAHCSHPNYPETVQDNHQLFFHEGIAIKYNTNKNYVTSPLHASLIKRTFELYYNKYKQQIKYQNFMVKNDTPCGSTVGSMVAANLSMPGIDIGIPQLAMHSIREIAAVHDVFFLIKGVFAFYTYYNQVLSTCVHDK
Chain of Induced myeloid leukemia cell differentiation protein Mcl-1 (Q07820 whole entry): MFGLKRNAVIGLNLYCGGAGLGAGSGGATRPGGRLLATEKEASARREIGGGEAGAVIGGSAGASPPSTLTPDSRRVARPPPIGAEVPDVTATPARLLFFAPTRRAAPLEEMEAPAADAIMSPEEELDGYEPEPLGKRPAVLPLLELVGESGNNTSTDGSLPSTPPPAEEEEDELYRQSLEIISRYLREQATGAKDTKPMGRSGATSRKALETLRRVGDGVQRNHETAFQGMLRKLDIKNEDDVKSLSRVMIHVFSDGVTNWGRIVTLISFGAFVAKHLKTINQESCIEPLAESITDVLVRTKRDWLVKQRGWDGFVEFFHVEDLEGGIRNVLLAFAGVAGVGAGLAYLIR

On to `Cc1cc(/C=N/NC(=O)c2cccc(F)c2)c(C)n1-c1ccccc1`, for which the EC50 in assay [1] was 0.217 µM (active); in the assay with H4, > 120 µM (not active); in assay [2], 2.7 µM (active); in assay [3] it was < 0.1 µM (inconclusive); in assay [4] it was 0.849 µM (active).
With `Cc1ccc(Cl)cc1NC(=O)Nn1cnnc1`, the IC50 at Procathepsin L is > 59.6 µM (not active); on Aspartyl aminopeptidase it was 1.7 µM (active).
`O=C(CSc1ccc(Cl)cc1)N1c2ccccc2Sc2ccccc21`: in the assay with Streptococcus [5], the EC50 was > 500 µM (not active).
On to `Cc1cc(F)ccc1OC1C=CC(c2ccc3c(c2)OCO3)OC1CO` (centres undefined), for which the AC50 on Cytochrome P450 2D6 was 3.98 µM (inconclusive).
In the case of `Cc1ccc(-c2c3c([nH]c(=S)c2C#N)CCCC3)o1`, the IC50 at Large T antigen is 35.4 µM (active); in [7], 1.09 µM (active); in assay [8], 1.72 µM (active); in assay [9], 2.4 µM (active). Further, the EC50 in assay [6] is 6.14 µM (active).
As to `c1ccc(-c2nc(-c3ccco3)[nH]c2-c2ccccc2)cc1`, the IC50 at NADPH oxidase 1 was > 17 µM (not active).
Turning to `Cc1cc(C)c2nc(SCC(=O)NCCC3=CCCCC3)cc(C)c2c1`, the IC50 in assay [10] and in assay [11] was > 39.8 µM (not active) in each case.
As for `Cc1cccc(NC(=O)C2SC(Nc3c(C)cccc3C)=C(C(=O)N3CCOCC3)C2=N)c1` (centres undefined), the EC50 with Streptococcus [5] was 4.32 µM (active); with Streptococcus [12], > 150 µM (not active); at Streptokinase A, 3.32 µM (active); in [13], > 195 µM (not active); in assay [14], 0.959 µM (active).
In the case of `COc1cc2ccc(=O)oc2c(O)c1OCC=C(C)C` [CAPENSIN], the AC50 was 31.6 µM (inconclusive) at Cytochrome P450 2C9, 25.1 µM (inconclusive) at Cytochrome P450 2D6 and 12.6 µM (inconclusive) at Cytochrome P450 3A4.
Take `O=C(/C=C(/c1ccc(Cl)cc1)n1cncn1)c1ccccc1`: the EC50 is reported as > 12 µM (not active) in [1]; > 120 µM (not active) in the assay with H4; > 12 µM (not active) in assay [2]; > 120 µM (not active) in [15]; > 120 µM (not active) in [3]; > 12 µM (not active) in [4].
For `COc1ccc(N(C(=O)c2ccco2)S(=O)(=O)c2cc(Cl)c(Cl)cc2Cl)cc1`, the results for the IC50 (at Ephrin type-A receptor 4; in assay [16]) were > 100 µM (not active) and 11 µM (not active), respectively. In addition, the CC50 in assay [17] was > 40 µM (active).
